The conditions of series [1]: rcm bond, 15-membered ring.
A further series addresses T1, BACE1 enzyme (Homo sapiens, UniProt P56817).
T1 construct: The HEK293-9B.A1 cell line, which overexpresses the BACE1 enzyme, was derived from HEK293 cells; endogenous in cells; washed membrane pellet / cell homogenate
Description: Radioligand displacement assay with a radiolabeled BACE inhibitor on HEK293-9B.A1 cell homogenate. Type of series: binding. As to conditions: displacement of 1 nM tritiated radioligand, HEK293-9B.A1 homogenate, pH 5.0, 1.5 hr at 25° C.; read-out: Activity Rating (Activity based on IC50 values). The source says: There are a number of methods by which inhibitors of the BACE enzyme can be identified experimentally. The enzyme can be obtained from membrane samples from natural tissues or cultured cells or can be expressed recombinantly in a host cell by well known methods of molecular biology. The whole enzyme or a portion thereof can be expressed, for example, in bacterial, insect or mammalian cells to obtain a catalytically active enzyme species. The enzymatic activity and/or ligand binding capability of the enzyme can be assessed within these membrane samples, or the enzyme can be purified to varying extents. As an illustrative example, the nucleic acid sequence encoding the pro and catalytic domains of human BACE can be appended on the 5′ end with an untranslated and signal sequence from the gene for acetylcholinesterase, and on the 3′ end with a sequence encoding a poly-histidine tag. This cDNA can then be expressed in Drosophila melanogaster S2 cells in which the signal and pro sequences of the transcribed/translated protein are removed by cellular proteases and the catalytic domain, appended by a C-terminal poly-histidine tag, is secreted out into the cellular medium. The enzyme can then be purified from the culture medium by nickel affinity chromatography by methods well known to those trained in the art [Mallender, W. et al., “Characterization of recombinant, soluble beta-secretase from an insect cell expression system.” Mol. Pharmacol. 2001, 59: 619-626]. Similar strategies for expressing and purifying various forms of BACE in bacterial, mammalian and other cell types would be known to one skilled in the art. A preferred method for determining the potency of a test compound in binding to the BACE enzyme is by moitoring the displacement of a suitable radioligand.
Radioligand displacement assays with a radiolabeled BACE inhibitor (WO 2004 013098, compound 3, where the methoxy group is substituted for C(3H)3) were carried out using standard methods (Keen, M. (1999) in Receptor Binding Techniques (Walker, J. M. ed) p. 106 Humana Press, Totowa, N.J.). The HEK293-9B.A1 cell line, which overexpresses the BACE1 enzyme, was derived from HEK293 cells (Simmons, N. L. (1990) A cultured human renal epithelioid cell line responsive to vasoactive intestinal peptide. Exp. Physiol. 75:309-19.) by RAGE™ (Harrington, J. J. et al. (2001) Creation of genome-wide protein expression libraries using random activation of gene expression. Nat. Biotechnol. 19:440-5.; U.S. Pat. Nos. 6,410,266 and 6,361,972). T225 flask cultures of HEK293-9B.A1 were grown to 80% confluency in DMEM supplemented with 2 mM L-glutamine, 10 μg/ml penicillin, 10 μg/ml streptomycin, 3 μg/ml puromycin, 100 nM methotrexate, and 10% fetal bovine serum (Invitrogen, Carlsbad, Calif.), harvested, and resuspended at 2×10^8 cells per 10 ml of lysis buffer consisting of 50 mM HEPES pH 7.0 containing a protease inhibitor cocktail of AEBSF 104 μM, aprotinin 80 nM, leupeptin 2 μM, bestatin 4 μM, pepstatin A 1.5 μM, and E-64 1.4 μM (0.1% of protease inhibitor cocktail P8340, Sigma-Aldrich, St. Louis, Mo.) at 4° C. The resuspended cells were homogenized using a Polytron (Brinkman, Westbury, N.Y.) at setting 6 for 10 sec., then centrifuged at 48,000×g for 10 min. The resulting pellet was washed by repeating the resuspension, homogenization and centrifugation steps. The final pellet was resuspended in buffer at 4° C. to yield a total protein concentration of 5 mg/ml, then aliquots were frozen in liquid nitrogen for further storage at −70° C. Immediately before carrying out a binding assay, an aliquot of cell homogenate was thawed and diluted to a concentration of 100 μg/ml in assay buffer consisting of 50 mM HEPES pH 5.0 and 0.1% CHAPSO. […]
A general note: Loss of bound radioactivity is the signal in a displacement assay; it reports binding, not function.

Where two headings read alike, the source gives them in different places. Bounds are passed on as bounds.

T1 sequence (P56817 46-501): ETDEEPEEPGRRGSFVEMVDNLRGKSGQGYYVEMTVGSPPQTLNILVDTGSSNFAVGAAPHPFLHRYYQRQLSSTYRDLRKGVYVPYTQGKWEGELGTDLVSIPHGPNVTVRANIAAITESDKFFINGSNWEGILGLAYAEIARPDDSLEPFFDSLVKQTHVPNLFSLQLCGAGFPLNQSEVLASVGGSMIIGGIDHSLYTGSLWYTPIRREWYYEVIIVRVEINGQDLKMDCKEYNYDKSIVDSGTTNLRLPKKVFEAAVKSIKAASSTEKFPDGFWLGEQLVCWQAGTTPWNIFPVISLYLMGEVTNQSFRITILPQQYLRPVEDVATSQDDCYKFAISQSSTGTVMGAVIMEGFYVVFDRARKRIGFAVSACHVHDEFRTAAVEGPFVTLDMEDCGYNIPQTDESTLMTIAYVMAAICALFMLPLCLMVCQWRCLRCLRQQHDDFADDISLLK

In turn, `COc1ccc2c(c1)C1CC2OCC=CCC(N2CCCC2=O)C(=O)N[C@@H](Cc2ccccc2)[C@H](O)CN1` (stereo partly drawn) [Example 1, (4R,5S)-5-Benzyl-4-hydroxy-18-methoxy-8-(2-oxo-pyrrolidin-1-yl)-13-oxa-2,6-diaza-tricyclo[12.6.1.0^15,20]henicosa-10,15(20),16,18-tetraen-7-one] came in with a ring closure, yield after HPLC in series [1] (from C=CCOC1CC(NC[C@@H](O)[C@H](Cc2ccccc2)NC(=O)C(CC=C)N2CCCC2=O)c2cc(OC)ccc21, Grubbs II (20 mol%)/TsOH.H2O, CH2Cl2, 8.75 mM, 25.0 °C, 18.0 h) of 97%. The IC50 (usually the concentration that inhibits the measured activity by half) on BACE1 enzyme is above 1000 nM.

As for `COc1ccc2c(c1)C1CC2OCCCCC(N2CCCC2=O)C(=O)N[C@@H](Cc2ccccc2)[C@H](O)CN1` (stereo partly drawn) [Example 2, (4R,5S)-5-Benzyl-4-hydroxy-18-methoxy-8-(2-oxo-pyrrolidin-1-yl)-13-oxa-2,6-diaza-tricyclo[12.6.1.0^15,20]henicosa-15(20),16,18-trien-7-one], at BACE1 enzyme, the IC50 was above 1000 nM.

The compound `COc1ccc2c(c1)[C@@H]1C[C@H]2OCC=CC[C@H](N2CCCC2=O)C(=O)N[C@@H](Cc2cc(F)cc(F)c2)[C@H](O)CN1` [Example 3, (1S,4R,5S,8S,14R)-5-(3,5-Difluoro-benzyl)-4-hydroxy-18-methoxy-8-(2-oxo-pyrrolidin-1-yl)-13-oxa-2,6-diaza-tricyclo[12.6.1.0^15,20]henicosa-10,15(20),16,18-tetraen-7-one] returned a ring closure, yield after HPLC in series [1] (from C=CCO[C@@H]1C[C@H](NC[C@@H](O)[C@H](Cc2cc(F)cc(F)c2)NC(=O)[C@H](CC=C)N2CCCC2=O)c2cc(OC)ccc21, Hoveyda-Grubbs II (20 mol%), CH2Cl2, 7.15 mM, 25.0 °C, 16.0 h) of 70%. The half-inhibitory concentration (IC50) on BACE1 enzyme was in the range of 10 to 1000 nM.

In turn, `CCCC[C@H]1CCN([C@H]2CC=CCO[C@@H]3C[C@H](NC[C@@H](O)[C@H](Cc4cc(F)cc(F)c4)NC2=O)c2cc(OC)ccc23)C1=O` [Example 4, (1S,4R,5S,8S,14R)-8-((S)-3-Butyl-2-oxo-pyrrolidin-1-yl)-5-(3,5-difluoro-benzyl)-4-hydroxy-18-methoxy-13-oxa-2,6-diaza-tricyclo[12.6.1.0^15,20]henicosa-10,15(20),16,18-tetraen-7-one] came in with a ring closure, yield after HPLC in series [1] (from C=CCO[C@@H]1C[C@H](NC[C@@H](O)[C@H](Cc2cc(F)cc(F)c2)NC(=O)[C@H](CC=C)N2CC[C@H](CCCC)C2=O)c2cc(OC)ccc21, Hoveyda-Grubbs II (10 mol%), CH2Cl2, 25.0 °C, 72.0 h) of 46%. Besides, the IC50 at BACE1 enzyme was below 10 nM.

Take `CCCC[C@H]1CCN([C@H]2CCCCO[C@@H]3C[C@H](NC[C@@H](O)[C@H](Cc4cc(F)cc(F)c4)NC2=O)c2cc(OC)ccc23)C1=O` [Example 5, (1S,4R,5S,8S,14R)-8-((S)-3-Butyl-2-oxo-pyrrolidin-1-yl)-5-(3,5-difluoro-benzyl)-4-hydroxy-18-methoxy-13-oxa-2,6-diaza-tricyclo[12.6.1.0^15,20]henicosa-15(20),16,18-trien-7-one]: on BACE1 enzyme, the IC50 was below 10 nM.

In series [1] (from C=CCO[C@@H]1C[C@H](NC[C@@H](O)[C@H](Cc2ccccc2)NC(=O)[C@H](CC=C)N2CC[C@](NC(C)=O)(C(C)CC)C2=O)c2cc(OC)ccc21, Hoveyda-Grubbs II (10 mol%), dichloroethane, 50.0 °C, 16.0 h), `CCC(C)[C@@]1(NC(C)=O)CCN([C@H]2CC=CCO[C@@H]3C[C@H](NC[C@@H](O)[C@H](Cc4ccccc4)NC2=O)c2cc(OC)ccc23)C1=O` (stereo partly drawn) [Example 6, N—[(S)-1-((1S,4R,5S,8S,14R)-5-Benzyl-4-hydroxy-18-methoxy-7-oxo-13-oxa-2,6-diaza-tricyclo[12.6.1.0^15,20]henicosa-10,15(20),16,18-tetraen-8-yl)-3-sec-butyl-2-oxo-pyrrolidin-3-yl]-acetamide] returned a ring closure, yield after HPLC of 50%. Further, the IC50 at BACE1 enzyme is below 10 nM.

Take `COc1ccc2c(c1)[C@@H]1C[C@H]2OCC=CC[C@H](N2CC[C@H](CC(C)C)C2=O)C(=O)N[C@@H](Cc2ccccc2)[C@H](O)CN1` [Example 7, (1S,4R,5S,8S,14R)-5-Benzyl-4-hydroxy-8-((S)-3-isobutyl-2-oxo-pyrrolidin-1-yl)-18-methoxy-13-oxa-2,6-diaza-tricyclo[12.6.1.0^15,20]henicosa-10,15(20),16,18-tetraen-7-one]: in series [1] (from C=CCO[C@@H]1C[C@H](NC[C@@H](O)[C@H](Cc2ccccc2)NC(=O)[C@H](CC=C)N2CC[C@H](CC(C)C)C2=O)c2cc(OC)ccc21, Hoveyda-Grubbs II (10 mol%), CH2Cl2, 8.9 mM, 25.0 °C, 16.0 h), the ring closure, yield after HPLC came out at 75%. The IC50 at BACE1 enzyme was below 10 nM.
